Measured values reported in US11185096B2, “Sweet taste improving compositions including naringenin and steviol glycosides” (DR PEPPER/SEVEN UP, INC., priority 2014, dated 2021).

Tests used:
Type in all cases: in vivo
[1] = Taste evaluation of beverages with rebaudioside E, rebaudioside M or both, with and without naringenin (Example 3)
Experimental: In this example, samples were prepared to determine the taste attributes of reduced-calorie beverages including rebaudioside E, rebaudioside M, and combinations of rebaudiosides E and M, with and without naringenin. Beverages were prepared by adding rebaudiosides to the base solution shown in Table E. The tested concentrations of rebaudioside E, rebaudioside M, or a combination of both rebaudiosides, are shown in Table F. Beverages were then prepared by adding naringenin in various amounts, ranging from about 10 ppm to about 300 ppm, as shown in Table G. For example, naringenin was added to the base solution and each of the rebaudioside solutions shown in Table F. Further description of the beverages prepared in Example 3 is also shown in FIG. 2 of the drawings. Each of the prepared beverages was evaluated for changes or improvements for each of sweetness profile (upfront, middle, and back end sweetness), aftertaste (chemical, astringency), mouthfeel (cloying, thickness, thinness), and bitterness (relative to Rebaudioside A). For example, in a protocol to compare the bitterness of beverage samples to rebaudioside A, participants tasted each of an about 10 ml sample of the test beverage and an about 10 ml sample of a beverage including rebaudioside A (prepared in the same base solution shown in Table E). Relative bitterness was then immediately rated between the beverage samples.

[2] = Sensory panel evaluation of naringenin in water (Example 1); settings: for Sweetness: sensory panelists
Experimental: Naringenin was evaluated in water as shown in Table B. Water used in all beverages described herein was specifically purified prior to use by processes well known in the art such as filtration, deionization, distillation, or reverse osmosis. Evaluation of the samples was performed using evaluation by sensory panelists. Beverage sampling comprised of taking an about 10 mL portion of the beverage into the mouth, holding the sample in the mouth, and rating the sweetness for each sample.

[3] = Taste evaluation of reduced-calorie beverage (Table C base formula) with added naringenin, compared to a full-calorie beverage (Example 2)
Excerpt: The base formula of Table C may provide about a 50% reduction in calories as compared to a typical full-calorie beverage.
For example, delocalization of sweetness, an attribute that relates to the beverage mouthfeel, was increased. […] Moreover, the aftertaste of naringenin-including samples became more syrupy, resulting in an aftertaste that was more similar to the full-calorie product. Improvements in sweetness and aftertaste were found for each of the above samples that included naringenin.

[4] = Table C base formula with naringenin 15 to 300 ppm

## C=C1C[C@@]23CC[C@H]4[C@@](C)(CCC[C@@]4(C)C(=O)O[C@@H]4O[C@H](CO)[C@@H](O)[C@H](O)[C@H]4O[C@@H]4O[C@H](CO)[C@@H](O)[C@H](O)[C@H]4O)[C@@H]2CC[C@]1(O[C@@H]1O[C@H](CO)[C@@H](O)[C@H](O)[C@H]1O[C@@H]1O[C@H](CO)[C@@H](O)[C@H](O)[C@H]1O)C3 [rebaudioside E]
[1]; Table E base with rebaudioside E 300 ppm, without naringenin, in comparison to sugar or rebaudioside M solutions
  sweetness profile: very flat sweetness profile and flat
[1]; rebaudioside E alone without naringenin, compared to rebaudioside M
  mouthfeel and fullness: less mouthfeel and fullness

## O=C1C[C@@H](c2ccc(O)cc2)Oc2cc(O)cc(O)c21 [naringenin]
[2]; in water, data of Table B (5 to 200 ppm)
  taste or flavor: does not elicit any taste or flavor
[2]; naringenin 5 ppm in water
  Sweetness: No perceptible sweetness
[2]; naringenin 10 ppm in water
  Sweetness: No perceptible sweetness
[2]; naringenin 20 ppm in water
  Sweetness: No perceptible sweetness
[2]; naringenin 40 ppm in water
  Sweetness: No perceptible sweetness
[2]; naringenin 80 ppm in water
  Sweetness: No perceptible sweetness
[2]; naringenin 100 ppm in water
  Sweetness: No perceptible sweetness
[2]; naringenin 200 ppm in water
  Sweetness: No perceptible sweetness
[1]; 10, 50 or 70 ppm naringenin with combination of rebaudioside E and rebaudioside M, vs rebaudioside M alone or with naringenin
  overall perception: perceived as better
[1]; 10 to 70 ppm naringenin with rebaudioside E, compared to rebaudioside E base alone
  mouthfeel: increased
[1]; 300 ppm naringenin, Table E base with rebaudioside E 300 ppm
  overall perception: perceived as negative
[1]; 300 ppm naringenin, Table E base with rebaudioside M 300 ppm
  overall perception: perceived as negative
[1]; 300 ppm naringenin, Table E base with rebaudiosides E and M 150 ppm each
  overall perception: perceived as negative
[1]; 300 ppm naringenin, across all bases
  suitability of naringenin level: too high
[1]; about 10 ppm to 70 ppm naringenin, Table E base with rebaudioside E 150 ppm and rebaudioside M 150 ppm
  sweetness profiles: significantly improved
[1]; about 10 ppm to about 70 ppm naringenin, Table E base with rebaudiosides E and M 150 ppm each
  cloying mouthfeel and aftertaste: diminished
[1]; higher naringenin concentrations, particularly 300 ppm, Table E base with rebaudioside M 300 ppm, some participants
  mouthfeel: cloying mouthfeel
[1]; naringenin added to Table E base with rebaudioside E 300 ppm
  sweetness in the middle of the profile: increased
[1]; naringenin added to Table E base with rebaudioside M 300 ppm
  taste character / mouthfeel: sticky sweet
[3]; [4]
  delocalization of sweetness: increased
  upfront sweetness profile: surprisingly increased
[3]; Table C base formula with naringenin 15 to 300 ppm, vs full-calorie beverage
  syrup qualities of the beverages (mouthfeel): increase syrup qualities
[3]; Table C base formula with naringenin 15 to 300 ppm, vs full-calorie product
  aftertaste: more syrupy
[3]; Table C base formula, 15 ppm naringenin
  sweetness profile: significantly improved
[3]; Table C base formula, about 30 ppm naringenin
  sweetness profile: close to that of the full-calorie product
[3]; Table C base formula, above 30 ppm up to about 300 ppm naringenin
  noticeable taste impressions or interference with flavors: did not provide any noticeable taste impressions
